Results reported in patent publication US20070037783A1, “Migrastatin analogs and uses thereof” (priority 2003, published 2007).

How the values were obtained:
[1] = system: cells; experiment: Chamber cell migration assay, CyQuant readout (preliminary, Table 3); format: cell-based; settings: 36 h, tested 200, 100, 50, 25, 10 μM
Procedure: 3. Chamber Cell Migration Assay (Table 3)
Cells were grown in an appropriate media to 70 to 80% confluence and incubated in serum and growth factor free media for 24 h. Cells were detached by typsin treatment, collected by centrifugation and resuspended in serum free media to a final concentration of 150,000 cells/mL. 400 μL of the cell suspension were loaded into a fibronectin coated insert for 24 well multidishes. 750 μL fully supplemented media were applied to the compartment under the insert. To both chambers the inhibitor was added at the intended concentration and the plates were incubated for 36 h at 37° C., 5% CO2. […] The resulting CyQuant assay solution was transferred to the cavities of a 96 well microtiter plate and the fluorescence signal was recorded in an appropriate reader. The CyQuant dye forms a highly fluorescent complex with DNA, thus the fluorescence signal is proportional to the number of cells that migrated throught he membrane in the presence of the test compound (N^inh). […] The positive control fluorescent reading correlates with the number of cells that migrate through the membrane in the absence of inhibitor (N^+). […] The negative control fluorescent reading correlates with the number of cells that migrate through the membrane through non-directed processes (N^−). The anti-migratory effect of a test compound is determined by the ratio (N^inh−N^−)/(N^+−N^−).

[2] = system: tumor cell migration; settings: literature value for natural migrastatin; read-out: IC50, wound healing assay (reported activity); cited from earlier work
[3] = Mouse plasma stability study (HPLC); format: in vitro ADME; settings: stable = intensity of HPLC signal unchanged over 60 min of incubation
Procedure: Mouse Plasma Stability Studies (Table 5): HPLC conditions: The sample is injected and separated using an Inertsil ODS3 6u 3×150 mm column with a mobile phase of MeCN and water (50% for migrastatin) at a flow of 0.4 mL/min, monitored at 220 nm at 0.02 AUFS (the retention time for migrastatin is ca. 4 min, the identity of this peak was confirmed by mass spectral analysis). Incubation and sample preparation conditions: A solution (ca. 30 mM) of chemical compound (Table 5) in DMSO is prepared. 2 μL of the solution is added to a mixture containing 200 μL of mouse plasma and 800 μL of PBS. The resulting solution is put into a water bath at 37° C., and 100 μL of sample is withdrawn at 10, 20, 30, 45, and 60 min. The precipitate is removed by centrifugation and 20 μL of the supernatant is injected onto the HPLC.

[4] = system: HUVEC; experiment: Tube formation assay (preliminary, Table 1); format: cell-based, human; settings: minimal concentration causing definite disturbance of tube network, 16-18 h, tested 200, 100, 50, 25, 10 μM
Procedure: 1. Tube Formation Assay (Table 1):
A protocol was designed based on the instructions from the provider (BD Bioscience, San Jose, Calif.). Briefly, wells of a 48 well culture dish were covert with 150 μL matrigel and the matrigel was gelatinized for 30 min at 37° C. A 80-90% confluent HUVEC (BD Bioscience, San Jose, Calif.) culture was trypsin treated, the detached cells were collected by centrifugation and resuspended in EGM-2 media (BD Bioscience, San Jose, Calif.). Cell concentration was adjusted to 100.000 cells/mL. 400 μL of the cell suspension were filled in the matrigel coated wells, and a solution of the inhibitor was added to the intended final concentration. The plates were incubated at 37° C. with 5% CO2 for 16-18 h. Media was removed, and the matrigel surface was washed twice with 500 μL PBS before cells were labeled with 250 μL 8 μM Calcein AM (Pierce, Rockford, Ill.) in PBS for 30 min at 37° C. After two additional washing steps (500 μL PBS) cells were visualized under an inverted microscope. Fluorescence was excited at 488 nm and recorded at 538 nm. The minimum effect concentration was defined as the minimal inhibitor concentration that caused a definite disturbance of the complexity of the formed tube network.

[5] = system: 4T1 mouse breast tumor cells; experiment: Boyden chamber cell migration assay with 4T1 tumor cells; format: cell-based; settings: Mus musculus, read-out: IC50 (4T1 tumor cells)
Procedure: The biological evaluation of the compounds (in terms of their ability to inhibit cell migration) was accomplished in a Boyden chamber cell migration assay. In this assay, mouse breast tumor cells (4T1 cells) or endothelial cells (HUVECs) are seeded on the upper chamber of a transwell insert. Growth factor-containing serum is added to the lower chamber.
Chamber Cell Migration Assay (Tables 4 and 6): Cell migrations were assayed with Boyden chambers [8.0 μm pore size, polyethylene terephthalate membrane, FALCON cell culture insert (Becton-Dickinson)]. 4T1 mouse breast tumor cells or HUVECs were trypsinized and counted. 300 μl of 5-10×10^4 cells in serum-free medium was added to the upper chamber and 500 μl of medium with 10% fetal bovine serum (FBS) was added to the lower chamber. […] Cells on the inside of the transwell inserts were removed with a cotton swab, and cells on the underside of the insert were fixed and stained. Photographs of three random regions were taken and the number of cells was counted to calculate the average number of cells that have transmigrated.

[6] = system: 4T1 mouse breast tumor cells; experiment: Wound-healing assay with 4T1 cells (FIG. 6); format: cell-based; settings: with serum; 200 μM; overnight
From the text: In the wound healing assay, standard scratches (i.e., wounds) were made through a confluent 4T1 cell layer. In the absence of serum, cells would not migrate across the empty space created by application of the scratch. Upon addition of serum containing migration-enabling factors, migration of 4T1 cells across the scratch was induced. Exposure to these cells to inventive compounds allowed the evaluation of the cell migration inhibitory activity of these compounds.
Wound-Healing Assay (See FIG. 6). 4T1 mouse breast tumor cells in RPMI-1640 medium containing 10% fetal bovine serum (FBS) were seeded into wells of 24-multiwell plates (Becton-Dickinson). After cells grew to confluence, wounds were made with sterile pipette tips. Cells were washed with Phosphate Buffered Saline (PBS) and refreshed with growth medium containing different concentrations of chemical compounds. After overnight incubation at 37° C., cells were fixed and photographed.

[7] = system: adherent cells (e.g. KYSE-520 cells); experiment: Wound healing (scratch) assay (preliminary, Table 2); format: cell-based; settings: 28 to 30 h, compared to 100 μM Migrastatin, tested 200, 100, 50, 25, 10 μM
Procedure: 2. Wound Healing Assay (Table 2)
The wound healing assay was performed based on the method described by Nakae et al. (Nakae et al., J. Antibiotics (2000), 53, 1130-1136). Briefly, adherent cells were grown in a suitable media to confluence (e.g. KYSE-520 cells in RPMI-1640 with 10% FBS). Cells were starved for 24 h in serum free media. A scratch (ca. 0.5 mm) was applied and the cell layer was washed twice with PBS after removal of the media. Fresh, serum free media with the test compound at the desired concentration was added and the cells were incubated for 28 to 30 h at 37° C., 5% CO2. The scratch size was compared to that observed for cells exposed to 100 μM Migrastatin. Test compounds associated with a scratch size equal to or larger than that observed for cells exposed to 100 μM Migrastatin were deemed to have cell migration inhibitory activity at least equal to Migrastatin.

[8] = system: HUVECs (human umbilical vein endothelial cells); experiment: Boyden chamber cell migration assay with HUVECs; format: cell-based; settings: Homo sapiens, HUVEC, read-out: IC50 (HUVEC)
Procedure: Chamber Cell Migration Assay (Tables 4 and 6): Cell migrations were assayed with Boyden chambers [8.0 μm pore size, polyethylene terephthalate membrane, FALCON cell culture insert (Becton-Dickinson)]. 4T1 mouse breast tumor cells or HUVECs were trypsinized and counted. 300 μl of 5-10×10^4 cells in serum-free medium was added to the upper chamber and 500 μl of medium with 10% fetal bovine serum (FBS) was added to the lower chamber. The transwells were incubated for 6-8 h at 37° C. with different concentrations of chemical compound in both upper and lower chamber. Cells on the inside of the transwell inserts were removed with a cotton swab, and cells on the underside of the insert were fixed and stained. Photographs of three random regions were taken and the number of cells was counted to calculate the average number of cells that have transmigrated.

[9] = system: 4T1 tumor cells; experiment: Cell proliferation assay (MTT); settings: Mus musculus, 4T1, 48 h, read-out: IC50, 4T1 cell proliferation
Procedure: Cell Proliferation Assay: 4×10^4 of 4T1 tumor cells in RPMI-1640 medium containing 10% FBS were seeded into wells of 96-multiwell plates (Becton-Dickinson) in the presence or absence of chemical compounds and then incubated at 37° C. for 48 h. An MTT kit (Cell Proliferation Kit I, Roche) (a colorimetric assay) was used to quantify cell proliferation and viability. The number of living cells, thus the total metabolic activity, directly correlates to the amount of purple formazan crystals formed (monitored by the absorbance).

CO[C@H]1/C=C/CC/C=C/C(=O)O[C@H]([C@H](C)C(=O)CCCC2CC(=O)NC(=O)C2)/C(C)=C\[C@@H](C)[C@@H]1O [migrastatin (1), Migrastatin]
IC50 [1]: 200 µM | IC50 [2]: 29 µM | stability (mouse plasma), in words [3]: stable^1 | stability (mouse plasma), in words ([3]; listed as migrastatin): completely inert toward lactone opening | Minimum effect concentration [4]: 100 µM | IC50 [5]: 29 µM | inhibition of 4T1 cell migration across the scratch, in words [6]: not as great | Minimum effect concentration [7]: 100 µM | IC50 [8]: 65 µM | IC50 [9]: 42 µM
